# Measurements from paper PMC8290231 (Cancer Medicine, 2021).
# Where two headings read alike, the source gives them in different places.
# Tests used:
# Ba/F3‐FGFR1‐V561F [1] = test: Apoptosis assay by flow cytometry (Annexin V / 7-AAD); assay type: cell-based
# Description: After incubation, cells were collected and washed twice with pre‐cold PBS. About 6 × 10^5 cells were resuspended in 100 μl of 1× BD binding buffer solution (#556454, BD), and then stained with 7‐ADD (#559925, BD) and Annexin V‐PE (#556422, BD) in the dark for 15 min. Finally, 400 μl of 1×BD binding buffer solution were added to stop dyeing. The cells were then measured on a Guava easyCyte flow cytometer (Merck, USA).
# Ba/F3‐FGFR1 xenograft = test: Mouse xenograft tumor model; assay type: in vivo, CB17‐SCID mice; settings: for tumor growth inhibition (TGI): oral gavage
# Excerpt: (§1) All animal studies were approved by the Institutional Animal Care and Use Committee. Male CB17‐SCID mice were purchased from Vital River Laboratory Animal Technology Inc. (Beijing, China). The right flanks of SCID mice were subcutaneously injected with 2 x 10^6 Ba/F3‐FGFR1, Ba/F3‐FGFR1‐V561F, or Ba/F3‐FGFR1‐V561M cells, respectively. When the average tumor volume reached 100–200 mm^3, mice bearing tumor were randomly divided into groups and treated with compounds or vehicle. All the compounds were suspended in 0.5% CMC‐Na aqueous solution. […] The body weight and tumor volume of animals were measured once every 2 days. Tumor volumes were calculated as L×W×W/2, where L and W are the length and width of the tumor, respectively. At the experiment terminal, tumor tissues were dissected, paraffin embedded, and sectioned for hematoxylin and eosin (H&E), immunohistochemistry (IHC), and TUNEL analysis.
# [2] = test system: Ba/F3‐FGFR1‐V561F xenograft; test: Mouse xenograft tumor model; assay type: in vivo, CB17‐SCID mice
# Excerpt: as §1
# Ba/F3‐FGFR1‐K656E = test: CCK-8 proliferation assay in Ba/F3 stable cells; assay type: cell-based; settings: Mus musculus
# Description: (§2) The Ba/F3 cell lines stably expressing FGFR1, FGFR1‐V561M, FGFR1‐V561F, FGFR1‐K656N, and FGFR1‐K656E were self‐established through electroporation pCDNA3.1‐TEL plasmids using the Amaxa Cell Line Nucleofector Kit V (Lonza, Cologne, Germany). Stable cell lines were selected by G418 (Merck, USA) and then withdrawal of IL‐3 (R&D). […] Parental Ba/F3 cells were maintained in RPMI 1640 supplemented with 10% FBS, 100 U/ml of penicillin, […] of streptomycin, and 10 ng/ml of IL‐3, while all Ba/F3 stable cell lines were cultured in the same medium without IL‐3.
# (§3) Cells were seeded in 96‐well plate in complete medium (1000–6000 cells/well) and cultured for overnight. Then the cells were exposed to gradient concentrations (0.0005–10 μM) of compounds. Cell proliferation was analyzed by Cell Counting Kit 8 (CK04, Dojindo Laboratories, Japan) after co‐incubation for a further 72 h. IC50 values were calculated by fitting of concentration–response curves using GraphPad Prism 8.01 software. Each assay was repeated at least three times.
# (§4) There is, however, no commercially available FGFR1 mutant kinase to validate this. Therefore, we constructed Ba/F3 model cells stably expressing FGFR1‐WT, K656E, K656N, V561M, and V561F mutations.
# Ba/F3‐FGFR1 = test: CCK-8 proliferation assay in Ba/F3 stable cells; assay type: cell-based; settings: Mus musculus, read-out: IC50 (μΜ) Ba/F3‐FGFR1
# Description: as §2, §3, §4
# Ba/F3‐FGFR1‐V561M = test: CCK-8 proliferation assay in Ba/F3 stable cells; assay type: cell-based; settings: Mus musculus
# Description: as §2, §3, §4
# Ba/F3‐FGFR1‐K656N = test: CCK-8 proliferation assay in Ba/F3 stable cells; assay type: cell-based; settings: Mus musculus, read-out: IC50 (μΜ) Ba/F3‐FGFR1‐K656N
# Description: as §2, §3, §4
# Ba/F3‐FGFR1‐V561F [3] = test: CCK-8 proliferation assay in Ba/F3 stable cells; assay type: cell-based; settings: Mus musculus
# Description: as §2, §3, §4
# MDA‐MB‐231 = test: CCK-8 cell proliferation assay; assay type: cell-based; settings: CCK-8, 72 h
# Description: (§5) The base medium for MDA‐MB‐453 cell line is DMEM medium (CORNING, USA). All other cell lines were cultured in RPMI‐1640 medium supplemented with 10% FBS, 100 U/ml of penicillin, and […] of streptomycin in 5% CO2 at 37℃. The cells in the logarithmic growth phase were used for the experiments.
# as §3
# (§6) The expression and activation levels of FGFR1–4 in these cells were determined via western blot experiments (Figure S1).
# MDA‐MB‐453 = test: CCK-8 cell proliferation assay; assay type: cell-based; settings: Homo sapiens, MDA-MB-453; FGFR4‐Y367C; CCK-8, 72 h; read-out: antiproliferative IC50, MDA‐MB‐453
# Description: as §5, §3, §6
# KATOIII = test: CCK-8 cell proliferation assay; assay type: cell-based; settings: Homo sapiens, KATO III; FGFR2 amplification; CCK-8, 72 h; read-out: antiproliferative IC50, KATOIII
# Description: as §5, §3, §6
# H1581 = test: CCK-8 cell proliferation assay; assay type: cell-based; settings: Homo sapiens, NCI-H1581; FGFR1 amplification; CCK-8, 72 h; read-out: antiproliferative IC50, H1581
# Description: as §5, §3, §6
# [4] = test system: FGFR1 signal pathway in Ba/F3‐FGFR1‐V561F; test: Western blot of FGFR1 signal pathway; assay type: cell-based
# Description: Cells were treated with different concentrations of compound or DMSO for indicated time. Then, cells were lysed with 1 × SDS sample lysis buffer (recommended by CST). […] After blocking with 5% BSA in TBST solution (0.5% Tween‐20) at room temperature for 4 hrs, the membranes were incubated with the corresponding primary antibody (1:2000–1:200) at 4℃ overnight. After washing with TBST for 3–5 times, the HRP‐conjugated secondary antibodies were incubated for 2 hrs. The protein signals were detected with Amersham Imager 600 system (GE, Boston, MA, USA) using an ECL western blotting detection kit (Thermo Fisher Scientific, Waltham, MA, USA).
# Cell lysates were separated by sodium dodecyl sulfate‐polyacrylamide gel electrophoresis (SDS‐PAGE) and analyzed by western blot for phosphorylated FGFR1, FGFR1, phosphorylated FRS2, FRS2, phosphorylated AKT (Ser473), AKT, phosphorylated Erk, and Erk. GAPDH was used as a control
# [5] = Homo sapiens, MDA-MB-231, 72 h, read-out: antiproliferative IC50, MDA‐MB‐231, negative control
smiles,measurement,setting,value
CCN1CCN(c2ccc(Nc3cc(N(C)C(=O)Nc4c(Cl)c(OC)cc(OC)c4Cl)ncn3)cc2)CC1 [BGJ398],effect on apoptosis,Ba/F3‐FGFR1‐V561F [1]; 1000 nM,weak effect
same,tumor growth inhibition (TGI),"Ba/F3‐FGFR1 xenograft; 10 mg/kg, once every day",64.2%
same,tumor growth inhibition (TGI),"[2]; 30 mg/kg, oral gavage, once every day",2.4%
same,IC50,"Ba/F3‐FGFR1‐K656E; BaF3, CCK-8, 72 h, read-out: IC50 (μΜ) Ba/F3‐FGFR1‐K656E",330 ± 2.9 nM
same,IC50,"Ba/F3‐FGFR1‐K656E; BaF3, bound stated, read-out: IC50 Ba/F3‐FGFR1‐K656E",> 330 nM
same,IC50,"Ba/F3‐FGFR1; BaF3, CCK-8, 72 h",31 ± 2.9 nM
same,IC50,"Ba/F3‐FGFR1‐V561M; BaF3, CCK-8, 72 h, read-out: IC50 (μΜ) Ba/F3‐FGFR1‐V561M",4380 ± 280 nM
same,IC50,"Ba/F3‐FGFR1‐V561M; BaF3, bound stated, read-out: IC50 Ba/F3‐FGFR1‐V561M",> 330 nM
same,IC50,"Ba/F3‐FGFR1‐K656N; BaF3, CCK-8, 72 h",82 ± 5.5 nM
same,IC50,"Ba/F3‐FGFR1‐V561F [3]; BaF3, CCK-8, 72 h, read-out: IC50 (μΜ) Ba/F3‐FGFR1‐V561F",4250 ± 64 nM
same,IC50,"Ba/F3‐FGFR1‐V561F [3]; BaF3, bound stated, read-out: IC50 Ba/F3‐FGFR1‐V561F",> 330 nM
same,IC50,MDA‐MB‐231; [5],> 10000 nM
same,IC50,MDA‐MB‐453,2700 ± 104 nM
same,IC50,KATOIII,17.1 ± 2.4 nM
same,IC50,H1581,19.4 ± 2.5 nM
same,activation of FGFR1 and its signal pathway,[4]; 300 nM,no effects
Cc1ccc(C(=O)Nc2ccc(CN3CCN(C)CC3)c(C(F)(F)F)c2)cc1C#Cc1cnc2[nH]ncc2c1 [GZD824],apoptosis,"Ba/F3‐FGFR1‐V561F [1]; 100 nM, 48 h",71.01%
same,tumor growth inhibition (TGI),Ba/F3‐FGFR1 xenograft; 20 mg/kg,76.5%
same,IHC (pFGFR1) and TUNEL in tumor tissues,Ba/F3‐FGFR1 xenograft; 12 days,inhibits the FGFR1 activation and induces apoptosis
same,tumor growth inhibition (TGI),"[2]; 20 mg/kg, p.o., q2d",73.4%
same,IHC (pFGFR1) and TUNEL in tumor tissues,[2]; 12 days,inhibits the FGFR1 activation and induces apoptosis
same,IC50,"Ba/F3‐FGFR1‐K656E; BaF3, 72 h, read-out: IC50 (μΜ) Ba/F3‐FGFR1‐K656E",20.6 ± 0.8 nM
same,IC50,"Ba/F3‐FGFR1; BaF3, 72 h",8.1 ± 1.1 nM
same,IC50,"Ba/F3‐FGFR1‐V561M; BaF3, 72 h, read-out: IC50 (μΜ) Ba/F3‐FGFR1‐V561M",55 ± 3.7 nM
same,IC50,"Ba/F3‐FGFR1‐K656N; BaF3, 72 h",12 ± 2 nM
same,IC50,"Ba/F3‐FGFR1‐V561F [3]; BaF3, 72 h, read-out: IC50 (μΜ) Ba/F3‐FGFR1‐V561F",12 ± 0.5 nM
same,IC50,MDA‐MB‐231; [5],> 1000 nM
same,IC50,"MDA‐MB‐231; read-out: antiproliferative IC50, MDA‐MB‐231, negative control",2000 ± 782 nM
same,IC50,MDA‐MB‐453,148 ± 104 nM
same,IC50,KATOIII,9.8 ± 1.2 nM
same,IC50,H1581,10.8 ± 0.8 nM
same,"FGFR1 phosphorylation, downstream FRS2 and ERK1/2","[4]; 4 h, 3.7 nM to 300 nM",dose‐dependent inhibition
